Literature values in paper PMC12177174 (iScience, 2025).

What was measured:
[1] = system: bone mineral density; details: cited from earlier work
[2] = system: tumor; details: cited from earlier work
[3] = cited from earlier work

Cn1c(=O)c2c(ncn2CC(=O)Nc2ccc(-c3ccccc3)nn2)n(C)c1=O [ETC-159]
bone mineral density [1]: caused loss of bone mineral density
tumor response [2]: induces tumor regression
participants reporting dysgeusia [3]: ≤ 50%
circulating CTX-1 levels ([3]; patients with advanced cancer): increased circulating CTX-1 levels
